Results from publication PMC8519428, “Structural analysis of the boronic acid β-lactamase inhibitor vaborbactam binding to Pseudomonas aeruginosa penicillin-binding protein 3” (PLoS ONE, 2021).

Biological target: T1, penicillin-binding protein 3 (PBP3) (Pseudomonas aeruginosa, UniProt G3XD46)
T1 construct: gene ftsI; final PBP3 model contains residues 57–190, 213–490, and 501–561
Experiment: X-ray crystal structure ([…] Å, soak); also Bocillin competition assay (IC50) and DSF thermal shift (about […] °C)

T1 sequence (G3XD46 50-579): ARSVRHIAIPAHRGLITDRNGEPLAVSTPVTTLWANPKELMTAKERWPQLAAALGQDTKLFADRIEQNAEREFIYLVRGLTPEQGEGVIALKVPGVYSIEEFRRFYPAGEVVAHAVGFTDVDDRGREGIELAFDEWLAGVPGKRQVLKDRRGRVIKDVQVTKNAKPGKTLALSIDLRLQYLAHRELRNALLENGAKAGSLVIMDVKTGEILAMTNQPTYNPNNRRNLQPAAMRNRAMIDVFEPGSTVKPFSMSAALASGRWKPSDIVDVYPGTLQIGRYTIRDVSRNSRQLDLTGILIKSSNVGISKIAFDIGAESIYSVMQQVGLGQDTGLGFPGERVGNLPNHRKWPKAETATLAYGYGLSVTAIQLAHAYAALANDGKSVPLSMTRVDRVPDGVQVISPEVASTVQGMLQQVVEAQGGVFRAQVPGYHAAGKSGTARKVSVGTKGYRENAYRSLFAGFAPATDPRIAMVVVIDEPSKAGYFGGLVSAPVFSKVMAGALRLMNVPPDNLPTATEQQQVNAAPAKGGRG

Structure (SMILES): O=C(O)C[C@@H]1CC[C@H](NC(=O)Cc2cccs2)B(O)O1 [vaborbactam]
- IC50: 262 µM
